Legend:
TRAB-11 cells = test: effect on intracellular cAMP in TRAB-11 cells; type: cell-based, rat
Method: (§1) RCT-1 and RCT-3 are clonal cell lines immortalized by SV-40 large T antigen from cells released from fetal rat calvair by a combination collagenase/hyaluronidase digestion. RCT-1 cells, derived from cells released during the first 10 minutes of digestion (fraction I), are cultured in RPMI 1640 medium (BRL) with 10% fetal bovine serum and 0.4 mg/ml G418 (BRL). These cells differentiate and express osteoblastic features upon retinoic acid treatment. RCT-3 cells, immortalized from osteoblast-enriched fraction III cells, are cultured in F-12 medium (BRL) with 5% Fetal bovine serum and 0.4 mg/ml G418. TRAB-11 cells are also immortalized by SV40 large T antigen from adult rat tibia and are cultured in RPMI 1640 medium with 10% FBS and 0.4 mg/ml G418. ROS 17/2.8 rat osteosarcoma cells are cultured in F-12 containing 5% FBS. Osteoblast-enriched (fraction III) primary fetal rat calvaria cells are obtained by collagenase/hyaluronidase digestion of calvariae of 19 day-old rat fetuses. See Rodan et al., Growth stimulation of rat calvaria osteoblastic cells by acidic FGF, Endocrinology, 121, 1919-1923 (1987), which is incorporated by reference herein in its entirety. Cells are released during 30-50 minutes digestion (fraction […]) and are cultured in F-12 medium containing 5% FBS. […]

[1] = tested on: EP4 expression in bone marrow cells; test: localization of EP4 mRNA expression in bone tissue by in situ hybridization; type: in vivo, rat; details: rats, single anabolic dose
Method: (§2) For mRNA localization experiments, 5-week old Sprague-Dawley rats (Charles River) are euthanized by CO2, their tibiae and calvariae are excised, cleaned of soft tissues and frozen immediately in liquid nitrogen. For EP4 regulation experiments, 6-week old rats are given a single injection of either vehicle (7% ethanol in sterile water) or an anabolic dose of PGE2 (Cayman Chemical, Ann Arbor, Mich.), 3-6 mg/kg in the same vehicle) intraperitoneally. Animals are euthanized at several time points post-injection and their tibiae and calvariae, as well as samples from lung and kidney tissues are frozen in liquid nitrogen.
Frozen tibiae are sectioned coronally at […] thickness and sections are mounted on charged slides (Probe On Plus, Fisher Scientific, Springfield, N.J.) and are kept at −70° C. until hybridization. cRNA probes are labeled with ^35S-UTPgS (ICN, Costa Mesa, Calif.) using a Riboprobe II kit (Promega Madison, Wis.). Hybridization is performed overnight at 50° C. […]
In situ hybridization is used in order to localize cells expressing EP4 in bone. In control experiment (vehicle-injected) rats, low expression of EP4 is detected in bone marrow cells. […]

EP2 mRNA in bone tissue = EP2 mRNA in bone tissue of rats after systemic injection (Northern blot); type: in vivo, rat; details: 3-6 mg/Kg injected
Method: as §2
Total RNA is extracted from the tibial metaphysis or diaphysis and calvaria using a guanidinium isothiocyanate-phenol-chloroform method after pulverizing frozen bone samples by a tissue homogenizer. See P. Chomczynski et al., Single-step method of RNA isolation by acid guanidium thiocyanate-phenol-chloroform extraction., Analyt Biochem, 162, 156-159 (1987), which is incorporated by reference herein in its entirety. RNA samples ([…]) are separated on 0.9% agarose/formaldehyde gels and transferred onto nylon membranes (Boehringer Mannheim, Germany). […]

[2] = tested on: ROS 17/2.8 rat osteosarcoma cells; test: effect on intracellular cAMP in ROS 17/2.8 cells; type: cell-based
Method: as §1

EP4 mRNA in RCT-3 cells = test: EP4 mRNA expression (Northern blot) in RCT-3 cells; type: cell-based, rat
Method: as §1

[3] = tested on: EP4 mRNA in RP-1 periosteal cells; test: EP4 mRNA expression (Northern blot) in RP-1 periosteal cells; type: cell-based, rat; details: 10^−6 M
Method: (§3) RP-1 periosteal cells are spontaneously immortalized from primary cultures of periosteal cells from tibae of 4-week old Sprague-Dawley rats and are cultured in DMEM (BRL, Gaithersburg, Md.) with 10% fetal bovine serum (JRH Biosciences, Lenexa, Kans.).
(§4) Total RNA is extracted from the tibial metaphysis or diaphysis and calvaria using a guanidinium isothiocyanate-phenol-chloroform method after pulverizing frozen bone samples by a tissue homogenizer. See P. Chomczynski et al., Single-step method of RNA isolation by acid guanidium thiocyanate-phenol-chloroform extraction., Analyt Biochem, 162, 156-159 (1987), which is incorporated by reference herein in its entirety. RNA samples ([…]) are separated on 0.9% agarose/formaldehyde gels and transferred onto nylon membranes (Boehringer Mannheim, Germany). Membranes are prehybridized in Hybrisol I (Oncor, Gaithersburg, Md.) and 0.5 mg/ml sonicated salmon sperm DNA (Boehringer) at 42° C. for 3 hours and are hybridized at 42° C. with rat EP2 and mouse EP4 cDNA probes labeled with [^32P]-dCTP (Amersham, Buckinghamshire, UK) by random priming using the rediprime kit (Amersham). After hybridization, membranes are washed 4 times in 2×SSC+0.1% SDS at room temperature for a total of 1 hour and once with 0.2×SSC+0.1% SDS at 55° C. for 1 hour and then exposed to Kodak XAR 2 film at −70° C. using intensifying screens. […]

RCT-3 cells = test: effect on intracellular cAMP in RCT-3 cells; type: cell-based, rat
Method: as §1

EP4 mRNA in bone tissue = test: EP4 mRNA levels in bone tissue of rats after systemic injection (Northern blot); type: in vivo, rat; details: five-week-old male rats; 3-6 mg/Kg injected
Description: For mRNA localization experiments, 5-week old Sprague-Dawley rats (Charles River) are euthanized by CO2, their tibiae and calvariae are excised, cleaned of soft tissues and frozen immediately in liquid nitrogen. […] Animals are euthanized at several time points post-injection and their tibiae and calvariae, as well as samples from lung and kidney tissues are frozen in liquid nitrogen.
as §4, with “(Amersham).” for “(Amersham). After hybridization, membranes are washed 4 times in 2×SSC+0.1% SDS at room temperature for a total of 1 hour and once with 0.2×SSC+0.1% SDS at 55° C. for 1 hour and then exposed to Kodak XAR 2 film at −70° C. using intensifying screens.”

EP2 mRNA in RP-1 cells = test: EP2 mRNA expression (Northern blot) in RP-1 cells; type: cell-based, rat
Method: as §3, §4

[4] = ocular tolerability in rabbits, topical ophthalmic solution; type: in vivo, rabbits (New Zealand white rabbits)
Method: Drug concentrations are expressed in terms of the active ingredient (base). The compounds of this invention are dissolved in a suitable ophthalmic solution (e.g., 0.5% Polysorbate-80, 0.02% benzalkonium chloride, 0.1% EDTA, 4.5% mannitol in 5 mM citrate) at 22, 2.2 and 0.22 μM for rabbit study and 111, 33, 11, and 1.1 μM for monkey studies. Drug or vehicle aliquots (25 ul) are administered topically unilaterally or bilaterally. In unilateral applications, the contralateral eyes receive an equal volume of vehicle. Proparacaine (0.5%) is applied to the cornea prior to tonometry to minimize discomfort. Intraocular pressure (IOP) is recorded using a pneumatic tonometer (Alcon Applanation Pneumatonograph) or equivalent.

[5] = ocular tolerability in cynomolgus monkeys; type: in vivo; details: compared to compounds disclosed in WO 2004/085430 (Example 2)

CCCCC[C@H](O)/C=C/[C@H]1[C@H](O)CC(=O)[C@@H]1C/C=C\CCCC(=O)O [PGE2]
effect on intracellular cAMP (TRAB-11 cells): markedly induced | expression of EP4 in bone marrow cells [1]: increased the expression of EP4 in bone marrow cells | induction of EP2 mRNA in bone tissue (EP2 mRNA in bone tissue): does not induce EP2 mRNA | effect on intracellular cAMP [2]: no effect | effect on EP4 mRNA levels (EP4 mRNA in RCT-3 cells): no effect | effect on EP4 mRNA levels [3]: rapidly increases EP4 mRNA levels | time of peak EP4 mRNA levels after treatment [3]: 2 h | effect on intracellular cAMP (RCT-3 cells): markedly induced | effect on EP4 mRNA levels in the tibial diaphysis (EP4 mRNA in bone tissue): rapidly increased EP4 mRNA levels | time of peak EP4 mRNA levels in the tibial diaphysis after injection (EP4 mRNA in bone tissue): 2 h | EP2 mRNA expression before or after treatment (EP2 mRNA in RP-1 cells): not expressed

CC(C)OC(=O)c1ccc(CCN2C(=O)OCC[C@@H]2CC[C@@H](O)C(F)(F)c2cccc(Br)c2)cc1 [Example 3, isopropyl 4-(2-{(4S)-4-[(3R)-4-(3-bromophenyl)-4,4-difluoro-3-hydroxybutyl]-2-oxo-1,3-oxazinan-3-yl}ethyl)benzoate]
drug treatment related ocular adverse effects (eye closure) ([4]; New Zealand white rabbits, single dose, topical, unilateral, 2.2 μM (25 μL) ophthalmic solution, vehicle panel-controlled): very slight drug treatment related ocular adverse effects (eye closure)

CC(C)OC(=O)c1ccc(CCN2C(=O)OCC[C@@H]2/C=C/[C@@H](O)C(F)(F)c2cccc(Br)c2)cc1 [Example 1, isopropyl 4-(2-{(4R)-4-[(1E,3R)-4-(3-bromophenyl)-4,4-difluoro-3-hydroxybut-1-en-1-yl]-2-oxo-1,3-oxazinan-3-yl}ethyl)benzoate]
ocular tolerability ([4]; rabbits, compared to compounds disclosed in WO 2004/085430 (Example 2)): improved ocular tolerability | ocular tolerability [5]: improved ocular tolerability
